# From PMC7153278, “Discovery of Membrane-Bound Pyrophosphatase Inhibitors Derived from an Isoxazole Fragment” (ACS Medicinal Chemistry Letters, 2020)
# Assay: Colloidal aggregation under TmPPase assay conditions (nephelometry)
# Format: physicochemical
# Experimental: Aggregation data for 5, 12k and 12l (Figure S1)
# Potential colloidal aggregation in the TmPPase model system was studied at five concentrations (50 µM, 25 µM, 10 µM, 5 µM, and 1 µM). The original assay conditions were simulated, and the light scattering of potential aggregates in the mixture was studied by nephelometric methods using Nepheloskan Ascent® (Labsystems, Finland). Aggregation of the blank and compounds 5, 12k and 12l were measured as triplicates from one independent experiment at three different voltages (300 V, 400 V and 500 V) at room temperature.
# 5 µM and 1 µM concentrations the obtained values were close to those observed by the blank, thereby […]
# Figure S1. Aggregation data for compounds 5, 12k and 12l. The data, measured in relative nephelometric units (RNU), is shown as the mean ± SD and normalized to the blank.
# (1 picture or pasted object on this page, not shown here)
# Experimental procedures and characterization data
# Commercial analogues were retrieved by screening the ZINC12 database1 (clean drug-like subset; downloaded on 27.04.2016) using a KNIME2 workflow connected to the RDKit3 nodes. The SAR analyses and docking studies (data not shown) underlying this work were conducted using the Schrödinger molecular modeling platform (Canvas and Glide modules, respectively)4 .
# Compounds 1–7, 13–20 and 24 were obtained from commercial suppliers. Supporting Information, Table S1 summarizes the compounds tested. Compound purity was >95% as determined by LC-MS and characterized by HRMS. For all commercial compounds after the initial screen, purity was tested independently from the vendor specification (a few compounds of lower purity are reported only in Supporting Information). To evaluate potential aggregation of samples in the TmPPase based assay, aggregate formation in the assay conditions was studied at five concentrations (50 μM, 25 μM, 10 μM, 5 μM, and 1 μM) for compounds 5, 12k and 12l (Figure S1).
# All chemicals used were commercially available. Reactions using anhydrous conditions were conducted in oven-dried (130 °C, >24 h) glassware, purged with argon prior to use. Microwave reactions were performed using a Biotage Initiator+ instrument (Uppsala, Sweden). The progress of the reactions was monitored by thin-layer chromatography on silica gel 60-F254 aluminum plates and visualized by using a dual short/long wave (254/366 nm) UV lamp. The combined organic solutions from extractions were dried over anhydrous Na2SO4, filtered and concentrated with a rotary evaporator at reduced pressure. Flash SiO2 column chromatography was performed with automated high performance flash chromatography, Biotage Isolera™ Spektra Systems with ACI™ and Assist (ISO-1SW Isolera One) equipped with a variable UV-VIS (200–800 nm) photodiode array (Uppsala, Sweden) using SNAP KP-SIL/Ultra 10 g or 25 g cartridges and the indicated mobile phase gradient.
# The reactions were not optimized and all the yields are given for purified products.
# Characterization of the synthesized products were done by NMR and MS analysis. 1H and 13C NMR spectra were acquired at 298 K on a Bruker Ascend 400 MHz – Avance III HD NMR spectrometer (Bruker Corporation, Billerica, MA, USA). Chemical shifts (δ) are reported in parts per million (ppm) relative to the residual solvent signals: CDCl3 7.26 and 77.16 ppm, CD3OD 3.31 and 49.00 ppm, DMSO-d6 2.50 and 39.52 ppm for 1H and 13C NMR, respectively. […] High resolution mass (HRMS-ESI) data was reported for the calculated and experimentally […]
smiles,measurement,setting,value
CC(C)(C)c1cc(-c2cc(C(=O)Oc3ccccc3Br)no2)cc(C(C)(C)C)c1 [Compound 12l],aggregation (light scattering),"at 10 µM, 5 µM and 1 µM",only minor/no detectable aggregation
same,aggregation (light scattering),at 50 µM and 25 µM,showed aggregate formation
